In general, AC50 refers to the concentration giving half of the maximal activity seen. Read a high AC50 as activity only at high concentration. For orientation: solubility (kinetic) means the concentration staying in solution when a stock, usually in DMSO, is diluted into the medium.

≈ marks a conversion by molar mass, not a printed value.

One series deals with T1, Pyruvate kinase PKM (Homo sapiens, UniProt P14618).
T1 sequence (P14618 whole entry): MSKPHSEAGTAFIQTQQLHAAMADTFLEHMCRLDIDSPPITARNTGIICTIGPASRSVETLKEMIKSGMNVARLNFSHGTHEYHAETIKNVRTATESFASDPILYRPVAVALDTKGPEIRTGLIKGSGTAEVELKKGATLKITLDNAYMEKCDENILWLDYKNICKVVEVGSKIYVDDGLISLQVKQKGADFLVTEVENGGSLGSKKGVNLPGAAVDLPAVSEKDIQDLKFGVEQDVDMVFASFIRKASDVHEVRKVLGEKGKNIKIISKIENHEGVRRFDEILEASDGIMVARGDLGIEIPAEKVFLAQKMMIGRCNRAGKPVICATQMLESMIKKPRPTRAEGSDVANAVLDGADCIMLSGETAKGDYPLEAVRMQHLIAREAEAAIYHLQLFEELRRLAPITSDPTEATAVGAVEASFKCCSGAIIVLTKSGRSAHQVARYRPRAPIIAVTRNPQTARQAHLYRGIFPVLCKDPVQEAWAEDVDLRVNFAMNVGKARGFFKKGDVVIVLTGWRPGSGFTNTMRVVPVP
Conditions: not given; call rule not given here
`Cc1cc2c(s1)c1cnn(-c3ccccc3)c(=O)c1n2C`: the concentration at half-maximal activity (AC50) result was “Not Active”. The same measure, in the same setting: then `Cc1cc2[nH]c3c(=O)n(Cc4ccccc4F)ncc3c2s1`, with “Not Active”; and `Cc1cc2c(s1)c1cnn(Cc3ccccc3F)c(=O)c1n2C(C)C`, with “Not Active”. Consider `Cn1c2cc(S(C)(=O)=O)sc2c2cnn(Cc3ccccc3F)c(=O)c21`, for which the concentration at half-maximal activity (AC50) entry is given as “Not Active”.

In another series the target is T1, Pyruvate kinase PKM.
Conditions: not given
The source holds these as a separate data set.
Regarding `Cn1c2cc([S+](C)[O-])sc2c2cnn(Cc3cccc(O)c3)c(=O)c21` (stereo unspecified), the AC50 was found to be 130 nM.

With `CCCCCn1ncc2c3sc(C)cc3n(C)c2c1=O`, the AC50 is over 35000 nM. Still for that read-out and setting: for `Cn1c2ccsc2c2ncn(Cc3ccccc3F)c(=O)c21` the value was over 35000 nM; for `CC(O)c1cc2c(s1)c1cnn(Cc3ccccc3F)c(=O)c1n2C` (stereo unspecified), 136 nM; for `Cc1cc2c(s1)c1cnn(Cc3ccc(C(F)(F)F)cc3F)c(=O)c1n2C`, over 15000 nM. Same read-out and setting: then `CCn1c2cc(C)sc2c2cnn(Cc3ccccc3F)c(=O)c21`, with 5900 nM. On the same count and under the same terms, for `Cc1cc2c(s1)c1c(C)nn(Cc3ccccc3F)c(=O)c1n2C` the value was over 30000 nM; for `COc1ccc(Cn2ncc3c4sc(C)cc4n(C)c3c2=O)cc1F`, 225 nM; for `COc1cccc(Cn2ncc3c4sc([S+](C)[O-])cc4n(C)c3c2=O)c1` (stereo unspecified), 73 nM. Compound `Cn1c2cc(B(O)O)sc2c2cnn(Cc3ccccc3F)c(=O)c21` had a half-maximal activity concentration (AC50) of over 10000 nM.

The compound `Cc1ccc(Cn2ncc3c4sc(C)cc4n(C)c3c2=O)c(F)c1` came in with a half-maximal activity concentration (AC50) of 108 nM. Consider `CC(=O)Nc1cc2c(s1)c1cnn(Cc3ccccc3F)c(=O)c1n2C`, for which the half-maximal activity concentration (AC50) is over 25000 nM.

Test system in the next series: not listed separately
Description: Aqueous solubility in DMSO at pH 7.4 by quantitative nitrogen detection assay. It is filed as physicochemical. The note with it: aqueous solution with DMSO.
Turning to `Cn1c2cc([S+](C)[O-])sc2c2cnn(Cc3cccc(O)c3)c(=O)c21` (stereo unspecified), the solubility (kinetic) was 16.9 µg/mL (≈ 45.3 µM). Same read-out and setting: then `Cc1cc2c(s1)c1cnn(Cc3ccccc3F)c(=O)c1n2C`, with under 0.2 µg/mL; and `COc1cccc(Cn2ncc3c4sc([S+](C)[O-])cc4n(C)c3c2=O)c1` (stereo unspecified), with 37.4 µg/mL (≈ 96.5 µM). On the same count and under the same terms, for `Cn1c2cc([S+](C)[O-])sc2c2cnn(Cc3cccc(N)c3)c(=O)c21` (stereo unspecified) the value was 29.6 µg/mL (≈ 79.5 µM); for `Cn1c2cc([S+](C)[O-])sc2c2cnn(Cc3ccccc3F)c(=O)c21` (stereo unspecified), 4.4 µg/mL (≈ 11.7 µM).

Source of the values: ChEMBL document CHEMBL1155492, “Evaluation of thieno[3,2-b]pyrrole[3,2-d]pyridazinones as activators of the tumor cell specific M2 isoform of pyruvate kinase” (Bioorg Med Chem Lett, 2010).
